In patent US4820717A, “Antimicrobial aromatic derivatives substituted by an (omega amino) alkanol group and compositions containing them” (priority 1985, dated 1989):
≈ marks a conversion by molar mass, not a printed value.

Experiments:
[1] = test system: Escherichia Coli CNCM 54125; test: Bactericidal activity (MBC), strain 1; format: cell-based; details: 20 min, strain 1, 20 minutes of contact, read-out: Minimum bactericidal concentration (MBC)
Description: (§1) The bactericidal activity of the products according to the invention has been analyzed on various strains by the method described hereafter:
(§2) A bacterial inoculum is placed in contact with different dilutions of the product to be tested, and this for a limited period of time. At the end of contact, an aliquot part of the mixture bacterial suspension/product is deposited on the surface of an agar culture medium containing an agent neutralizing the antibacterial activity of the product. The bactericidal concentration retained is the smallest concentration of the product from which bacteria stop growing. Said concentration is expressed in μg/ml.
(§3) The bacterial strains selected for the analysis are:
1--Escherichia Coli CNCM 54125;
(§4) The second strain is supported on a Worgel Fergusson medium, the other strains being supported on Tryptic Soy Agar-Difco (TSA) commercialized by Difco.
(§5) After a 24-hour culture period at 37° C., the microbial growth is collected by means of glass beads and of 10 ml of diluent containing 1 g of tryptone and 8.5 g of sodium chloride in 1000 ml of distilled water. The formed suspension is stirred and the percentage of light transmission at 620 nm is measured with a spectrophotometer:
(§6) The bacterial inoculum corresponds to a 1/20th dilution of this bacterial suspension.
(§7) Plates equipped with cupules receive different dilutions of the product to be analyzed. These dilutions are placed in contact with the different bacterial suspensions by means of a multiple-center inoculator. After 20 minutes of contact, aliquot parts are transferred by means of said inoculator on the surface of an agar medium (TSA) in Petri dishes, containing an activity-neutralizing agent, namely 20 g of lubrol W, 25 g of Tween 80 and 2.5 g of sodium thiosulfate in 1000 ml of TSA (Difco). The efficiency of the neutralizing agent is controlled for each product to be analyzed by depositing on the surface of the culture medium an aliquot part of the dilution of the product to be analyzed. After drying, the corresponding inoculum is deposited in the same place. An inoculum control is performed on an agar medium with or without neutralizing agent. Readings are taken after 48 hours of incubation at 37° C.

[2] = test system: Encapsulated klebsiella pneumoniae R030; test: Bactericidal activity (MBC), strain 2; format: cell-based; details: 20 min, strain 2, 20 minutes of contact, read-out: Minimum bactericidal concentration (MBC)
Description: as §1, §2, §3
2--Encapsulated klebsiella pneumoniae R030;
as §4, §5, §6, §7

[3] = test system: Pseudomonas aeruginosa CNCM A22; test: Bactericidal activity (MBC), strain 3; format: cell-based; details: CNCMA22, 20 min, strain 3, 20 minutes of contact, read-out: Minimum bactericidal concentration (MBC)
Description: as §1, §2, §3
3--Pseudomonas aeruginosa CNCM A22;
as §4, §5, §6, §7

[4] = test system: Streptococcus faecalis CNCM 5855; test: Bactericidal activity (MBC), strain 4; format: cell-based; details: Enterococcus faecalis, CNCM5855, 20 min; strain 4, 20 minutes of contact; read-out: Minimum bactericidal concentration (MBC)
Description: as §1, §2, §3
4--Streptococcus faecalis CNCM 5855;
as §4, §5, §6, §7

[5] = test system: Staphylococcus aureus CNCM 53154; test: Bactericidal activity (MBC), strain 5; format: cell-based; details: CNCM53154, 20 min, strain 5, 20 minutes of contact, read-out: Minimum bactericidal concentration (MBC)
Description: as §1, §2, §3
5--Staphylococcus aureus CNCM 53154.
as §4, §5, §6, §7

[6] = test system: Candida albicans CNCM 1180; test: Antifungal activity (MFC), strain 1; format: cell-based; details: 20 min; yeast strain 1; read-out: Minimum fongicidal concentration (MFC)
Description: as §2, §7
(§8) The antifungal activity of the products according to the invention was also determined with the aforedescribed method.
(§9) The fungal strains selected for the analysis are:
1--Candida albicans CNCM 1180;
(§10) These strains are supported on a Sabouraud Dextrose agar medium commercialized by Difco; the technique used is the same as that used in the analysis of the antibacterial activity. After 48 hours of culture at 37° C., the microbial growth is collected with glass beads and 5 ml of diluent containing 1 g of tryptone and 8.5 g of sodium chloride in 1000 ml of distilled water; 5 ml of the diluent are then added. […] A 1/100th dilution of this suspension, observed between slides under a microscope 40-lens, should show 10 cells per frame, this corresponding to 1,000,000 yeasts per ml.

[7] = test system: Candida tropicalis 3834; test: Antifungal activity (MFC), strain 2; format: cell-based; details: 20 min; yeast strain 2; read-out: Minimum fongicidal concentration (MFC)
Description: as §2, §7, §8, §9
2--Candida tropicalis 3834;
as §10

[8] = test system: Candida parakruzei 3918; test: Antifungal activity (MFC), strain 3; format: cell-based; details: 20 min; yeast strain 3; read-out: Minimum fongicidal concentration (MFC)
Description: as §2, §7, §8, §9
3--Candida parakruzei 3918;
as §10

[9] = test system: Torulopsis glabrata 072023; test: Antifungal activity (MFC), strain 4; format: cell-based; details: 20 min; yeast strain 4; read-out: Minimum fongicidal concentration (MFC)
Description: as §2, §7, §8, §9, §10

[10] = Acute toxicity by oral route in mice; details: mouse, in vivo, per os, male CD1 mice, 14 days observation
Description: Acute toxicity was tested by oral route in mice. This test was carried out with male mice of CD1 strain, obtained from the Charles Reever breeding farm. Each batch was composed of 5 animals of body weight varying between 24 and 30 g kept in the same cage. The animals were kept fasting for 6 hours before the treatment. For every test, the product, placed in suspension in a 10% solution of gum arabic, was administered by forcible feeding with an oesophageal probe. Food was then served to the animals 4 hours after the forcible feeding and the animals were kept under observation for a period of 14 days after the administration. During that period, the death rate is recorded for each batch of animals used in the experiment and, wherever possible, the LD50 is determined by the method of J. T. Litchfield and F. Wilcoxon, J. Pharmacol. 1949, 95, 99-113.
The results are given in mg of substance tested per kg of body weight. They are compiled in Table III below.

Row | SMILES | MBC [1] | MBC [2] | MBC [3] | MBC [4] | MBC [5] | MFC [6] | MFC [7] | MFC [8] | MFC [9] | LD50 at 336 h [10]
1 | OCC(CCN1CCCCCC1)c1c(Cl)cccc1Cl (stereo not drawn) [SR 43 703 A] | 600 µg/mL (≈ 1900 µM) | 600 µg/mL (≈ 1900 µM) | 400 µg/mL (≈ 1260 µM) | 800 µg/mL (≈ 2530 µM) | 1000 µg/mL (≈ 3160 µM) |  |  |  |  | 
2 | OCC(CCN1CCC(Cc2ccccc2)CC1)c1ccccc1 (stereo not drawn) [SR 43 705 A] | 500 µg/mL (≈ 1550 µM) | 500 µg/mL (≈ 1550 µM) | 500 µg/mL (≈ 1550 µM) | 500 µg/mL (≈ 1550 µM) | 500 µg/mL (≈ 1550 µM) |  |  |  |  | 
3 | OCC(CCN1CCCCCC1)c1ccc(Cl)cc1Cl (stereo not drawn) [SR 43 802 A] | 1000 µg/mL (≈ 3160 µM) | 1000 µg/mL (≈ 3160 µM) | 1000 µg/mL (≈ 3160 µM) | 2000 µg/mL (≈ 6320 µM) | 5000 µg/mL (≈ 15800 µM) |  |  |  |  | 
4 | OCC(CCN1CCCCCC1)c1ccc(Cl)c(Cl)c1 (stereo not drawn) [SR 43 803 A] | 400 µg/mL (≈ 1260 µM) | 400 µg/mL (≈ 1260 µM) | 500 µg/mL (≈ 1580 µM) | 400 µg/mL (≈ 1260 µM) | 400 µg/mL (≈ 1260 µM) | 1000 µg/mL (≈ 3160 µM) | 500 µg/mL (≈ 1580 µM) | 500 µg/mL (≈ 1580 µM) | 2000 µg/mL (≈ 6320 µM) | 
5 | CCN(CC)CCCCCCCCCC(CO)c1cccc2ccccc12 (stereo not drawn) [SR 43 826 A] | 50 µg/mL (≈ 135 µM) | 50 µg/mL (≈ 135 µM) | 50 µg/mL (≈ 135 µM) | 50 µg/mL (≈ 135 µM) | 50 µg/mL (≈ 135 µM) | 250 µg/mL (≈ 676 µM) | 50 µg/mL (≈ 135 µM) | 50 µg/mL (≈ 135 µM) | 250 µg/mL (≈ 676 µM) | 
6 | CCN(CC)CCCCCCC(CO)c1cccc2ccccc12 (stereo not drawn) [SR 43 940 A] | 50 µg/mL (≈ 153 µM) | 50 µg/mL (≈ 153 µM) | 50 µg/mL (≈ 153 µM) | 50 µg/mL (≈ 153 µM) | 50 µg/mL (≈ 153 µM) |  |  |  |  | 
7 | OCC(CCCCCN1CCC(Cc2ccccc2)CC1)c1cccc2ccccc12 (stereo not drawn) [SR 43 941 A] | 50 µg/mL (≈ 120 µM) | 50 µg/mL (≈ 120 µM) | 50 µg/mL (≈ 120 µM) | 50 µg/mL (≈ 120 µM) | 50 µg/mL (≈ 120 µM) | 100 µg/mL (≈ 241 µM) | 100 µg/mL (≈ 241 µM) | 250 µg/mL (≈ 602 µM) | 250 µg/mL (≈ 602 µM) | 
8 | Cl.OCC(CCN1CCC(Cc2ccccc2)CC1)c1ccc(Cl)c(Cl)c1 (stereo not drawn) [SR 43 969 A, 4-(4-benzylpiperidino)-2-(3,4-dichlorophenyl)butanol hydrochloride] | 50 µg/mL | 100 µg/mL | 500 µg/mL | 100 µg/mL | 50 µg/mL | 50 µg/mL | 50 µg/mL | 100 µg/mL | 500 µg/mL | 
9 | OCC(CCCN1CCN(c2ccccc2)CC1)c1ccccc1 (stereo not drawn) [SR 43 970 A, reference compound] | 5000 µg/mL (≈ 15400 µM) | 5000 µg/mL (≈ 15400 µM) | 2000 µg/mL (≈ 6160 µM) | 10000 µg/mL (≈ 30800 µM) | 5000 µg/mL (≈ 15400 µM) |  |  |  |  | 
10 | OCC(CCN1CCC(Cc2ccccc2)CC1)c1ccc(Cl)cc1Cl (stereo not drawn) [SR 44 027 A] | 50 µg/mL (≈ 127 µM) | 50 µg/mL (≈ 127 µM) | 100 µg/mL (≈ 255 µM) | 100 µg/mL (≈ 255 µM) | 200 µg/mL (≈ 510 µM) | 250 µg/mL (≈ 637 µM) | 250 µg/mL (≈ 637 µM) | 500 µg/mL (≈ 1270 µM) | 250 µg/mL (≈ 637 µM) | 1000 to 1200 mg/kg
11 | OCC(CCN1CCC(Cc2ccccc2)CC1)c1ccc(-c2ccccc2)cc1 (stereo not drawn) [SR 44 029 A] | 10 µg/mL (≈ 25 µM) | 50 µg/mL (≈ 125 µM) | 50 µg/mL (≈ 125 µM) | 50 µg/mL (≈ 125 µM) | 50 µg/mL (≈ 125 µM) | 50 µg/mL (≈ 125 µM) | 50 µg/mL (≈ 125 µM) | 50 µg/mL (≈ 125 µM) | 100 µg/mL (≈ 250 µM) | 
12 | Cc1cccc(C(CO)CCN2CCC(Cc3ccccc3)CC2)c1 (stereo not drawn) [SR 44 226 A] | 1000 µg/mL (≈ 2960 µM) | 1000 µg/mL (≈ 2960 µM) | 500 µg/mL (≈ 1480 µM) | 1000 µg/mL (≈ 2960 µM) | 2000 µg/mL (≈ 5930 µM) |  |  |  |  | 
13 | OCC(CCN(C1CCCCC1)C1CCCCC1)c1cccc2ccccc12 (stereo not drawn) [SR 44 227 A] | 100 µg/mL (≈ 263 µM) | 300 µg/mL (≈ 790 µM) | 500 µg/mL (≈ 1320 µM) | 100 µg/mL (≈ 263 µM) | 500 µg/mL (≈ 1320 µM) |  |  |  |  | 
